This note sets out measurements from article PMC9697930 (International Journal of Molecular Sciences, 2022).

A short description of data set [1]: MTT proliferation / drug combination assay. The data set is classed as cell-based, Canine. The following applies: dog, MDCKII-ABCG2 cells; read-out: IC50. Here is the method: (§1) The viability MTT assay was employed in several experimental sets, including induction studies, comparative viability assays, and drug combinations. First, 1.3 × 10^4 (MDCKII sublines), 1.2 × 10^4 (A431 sublines), 1.5 × 10^4 (MCF-7), and 1.0 × 10^4 (primary NSCLC explants) cells were seeded in 96-well plates. After seeding, cells were left to refresh in incubator for 24 h. Secondly, the medium was removed, and the serial dilutions of the drugs or drug combinations were added to the cells. Next to these variants, a medium with 40% DMSO and vehicle-containing media were tested as nonviable and unaffected viability controls, respectively. After an additional 48 h of incubation, the cells were washed with 1 × PBS and then treated with 1 mg/mL MTT solution in Opti-MEM. Subsequently, cells were incubated for 60 min under standard conditions. After MTT treatment, generated formazan crystals were solubilized with DMSO for 10 min. Wavelengths of 570 nm (formazan) and 690 nm (background) were used for absorbance measurements using a microplate reader Infinite 200 Pro NanoQuant (Tecan, Männedorf, Switzerland).
(§2) In vitro cell lines (MDCKII and A431) and primary NSCLC explants were seeded (see densities above) in 96-well plates and incubated for 24 h. […] Combined cells were incubated with the tested compounds for 48 h, and subsequently, MTT assay was performed to assess cell viability as described above. Besides IC50-shift analysis, CompuSyn 3.0.1 software (ComboSyn Inc., Paramus, NJ, USA) was used for the additional analysis of obtained data. This software works with the algorithms of the combination index (CI) method of Chou–Talalay, which is frequently used for the accurate quantification of drug combinations’ outcomes. According to the CI method principle, the combination effects were separated into three categories, including synergistic (CI < 0.9), additive (CI between 0.9–1.1), or antagonistic (CI > 1.1) ones.

The test system of a further data set is MDCKII-parent. Briefly: MTT proliferation / drug combination assay. The data set is classed as cell-based, Canine. The note with it: Canis lupus familiaris, 48 h. Here is the method: as §1, §2
The test system of the next data set is A431-ABCG2. Kind of data set: MTT proliferation / drug combination assay. The data set is classed as cell-based. The following applies: Homo sapiens, 48 h; read-out: IC50. Here is the method: as §1, §2
In another data set the test system is A431-parent. Kind of data set: MTT proliferation / drug combination assay. The note with it: Homo sapiens, 48 h. Type of data set: cell-based. Here is the method:
as §1, §2

Broadly, the IC50 is the concentration at which inhibition is half-maximal.

Each structure is given as a SMILES string. Read-outs that look alike come from different tables or passages of the source.

On to `O=C1c2c(O)ccc(O)c2C(=O)c2c(NCCNCCO)ccc(NCCNCCO)c21` [mitoxantrone], for which the IC50 at 48 h in data set [1] was 12100 nM. The IC50 came out at 1480 nM in the data set on MDCKII-parent (read-out: IC50), 10000 nM with A431-ABCG2 and 880 nM in the data set on A431-parent (read-out: IC50).
Regarding `COc1cccc2c1C(=O)c1c(O)c3c(c(O)c1C2=O)C[C@@](O)(C(C)=O)C[C@@H]3O[C@H]1C[C@H](N)[C@H](O)[C@H](C)O1` [daunorubicin], the results for the concentration for half-maximal inhibition (IC50) with MDCKII-parent and in the data set with A431-parent were 1000 nM and 1110 nM, respectively.
